Drawing on US5712397A, “Amino acid derivatives, processes for preparing them and pharmaceutical compositions containing these compounds” (Boehringer Ingelheim GmbH, priority 1994, dated 1998), this text covers IC50 for 2 compounds.

The target in this assay is T1, NK1-receptor (substance P-receptor) (Homo sapiens, UniProt P25103).
T1 construct: expressed in transfected cells; host or cells: IM-9 human lymphoblastoma cells
In words: NK1-receptor affinity: displacement of 125I-labelled substance P on human lymphoblastoma cells (IM-9) with cloned NK1-receptors. In kind it is binding. The method, then:
The receptor affinity for the NK1 -receptor (substance P-receptor) was determined on human lymphoblastoma cells (IM-9) with cloned NK1 -receptors, by measuring the displacement of ^125 I-labelled substance p.

The structures appear in SMILES notation.

T1 sequence (P25103 whole entry): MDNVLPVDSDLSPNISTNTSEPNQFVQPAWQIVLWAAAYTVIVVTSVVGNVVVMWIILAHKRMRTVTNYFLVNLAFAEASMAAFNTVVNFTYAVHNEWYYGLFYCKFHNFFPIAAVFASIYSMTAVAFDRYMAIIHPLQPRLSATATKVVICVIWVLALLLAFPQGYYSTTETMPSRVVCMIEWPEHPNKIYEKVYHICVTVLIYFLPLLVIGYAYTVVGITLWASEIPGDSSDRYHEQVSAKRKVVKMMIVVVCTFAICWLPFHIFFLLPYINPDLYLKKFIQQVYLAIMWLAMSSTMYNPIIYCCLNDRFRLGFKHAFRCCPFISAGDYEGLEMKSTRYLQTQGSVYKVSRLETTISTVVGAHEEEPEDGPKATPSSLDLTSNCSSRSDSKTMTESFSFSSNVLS

The compound `COc1cc2c(cc1OC)N(Cc1ccccc1Cl)C(=O)C(NC(=O)[C@@H]1C[C@@H](O)CN1C(=O)c1cn(C)c3ccccc13)C2` (single isomer, unassigned) [Example 1] displayed an IC50 of 0.4 nM.
`CCc1ccccc1CN1C(=O)C(NC(=O)[C@@H]2C[C@@H](O)CN2C(=O)c2cn(C)c3ccccc23)Cc2cc(OC)c(OC)cc21` (single isomer, unassigned) [Example 6] had a half-maximal inhibitory concentration (IC50) of 0.75 nM. Compared with the last compound, the IC50 is about 1.9-fold higher.
